These results are taken from US7348427B2, “Antipathogenic benzamide compounds” (Genesoft Pharmaceuticals, Inc., priority 2001, dated 2008).

Assay [1] concerns S. pneumoniae ATCC 49619. The assay can be described thus: MIC, NCCLS broth microdilution assay. In kind it is cell-based, Streptococcus pneumoniae. Particulars: H = S. pneumoniae ATCC 49619. An outline of the steps:
(§1)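 Broth microdilution per NCCLS M7-A4 (1997) guidelines; MIC recorded as minimal inhibitory concentration.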
A general note: Broth dilution looks for growth in wells or tubes with falling amounts of substance.

For assay [2], the system named is Candida albicans (ATCC 38247). The assay can be described thus: Antifungal MIC assay. Particulars: B = C. albicans ATCC 38247. In kind it is cell-based. An outline of the steps:
(§2)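 Compounds were serially diluted in broth in microtiter plates, inoculated with the test organism, and the lowest concentration inhibiting growth was recorded as MIC, following NCCLS reference methods; fungal assays used the Manual of Clinical Microbiology protocol.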

Assay [3] concerns E. faecalis ATCC 29212. The assay can be described thus: MIC, NCCLS broth microdilution assay. In kind it is cell-based, Enterococcus faecalis. Particulars: C = E. faecalis ATCC 29212. An outline of the steps:
as §1

The subject of assay [4] is Staphylococcus aureus (ATCC 13709, a methicillin sensitive strain (MSSA)). In words: MIC, NCCLS broth microdilution assay. In kind it is cell-based. Particulars: E = S. aureus ATCC 13709. An outline of the steps: as §2
Assay [5] has as its system Bacillus cereus (ATCC 11778). In words: MIC, NCCLS broth microdilution assay. Particulars: A = B. cereus ATCC 11778. In kind it is cell-based. An outline of the steps:
as §2

Assay [6] relates to Staphylococcus aureus (ATCC 27660, a methicillin resistant strain (MRSA)). The assay can be described thus: MIC, NCCLS broth microdilution assay. In kind it is cell-based. Particulars: F = S. aureus ATCC 27660. The method in brief: as §2

As to `Cn1cc(NC(=O)c2cc(NC(=O)c3cc(NC(=O)c4ccc(F)cc4)cn3C)cn2C)cc1C(=O)NCCN1CCSCC1` [Compound B-34], the “Minimum Inhibitory Concentration (MIC)” value in assay [1] was “+++ (+++ = MIC ≦ 4)”; in assay [2] it was greater than 32 µg/mL; in assay [3], “+++ (+++ = MIC ≦ 4)”; in assay [4], “+++ (+++ = MIC ≦ 4)”; in assay [5], “+++ (+++ = MIC ≦ 4)”; in assay [6], “+++ (+++ = MIC ≦ 4)”.

With `Cn1cc(NC(=O)c2cc(NC(=O)c3cc(NC(=O)c4cc(NC(=O)c5ccc(F)cc5)cn4C)cn3C)cn2C)cc1C(=O)NCCN1CCSCC1` [Compound B-35], the “Minimum Inhibitory Concentration (MIC)” value in assay [1] was “+++ (+++ = MIC ≦ 4)”; in assay [2], greater than 32 µg/mL; in assay [3], “+++ (+++ = MIC ≦ 4)”; in assay [4] it was “+++ (+++ = MIC ≦ 4)”; in assay [5], “+++ (+++ = MIC ≦ 4)”; in assay [6], “+++ (+++ = MIC ≦ 4)”.

As for `Cn1cc(NC(=O)c2cc(NC(=O)c3cc(NC(=O)c4cc(NC(=O)c5ccc(F)cc5)cn4C)cn3C)cn2C)cc1C(=O)NCCN1CCOCC1` [Compound B-37], the “Minimum Inhibitory Concentration (MIC)” value in assay [1] is “+++ (+++ = MIC ≦ 4)”; in assay [2] it was greater than 32 µg/mL; in assay [3] it was “+++ (+++ = MIC ≦ 4)”; in assay [4] it was “+++ (+++ = MIC ≦ 4)”; in assay [5], “+++ (+++ = MIC ≦ 4)”; in assay [6], greater than 32 µg/mL.

Consider `Cn1cc(NC(=O)c2cc(NC(=O)c3cc(NC(=O)c4ccccc4F)cn3C)cn2C)cc1C(=O)NCCN1CCOCC1` [Compound B-39], for which the “Minimum Inhibitory Concentration (MIC)” value in assay [1] is “+++ (+++ = MIC ≦ 4)”; in assay [2], greater than 32 µg/mL; in assay [3], “+++ (+++ = MIC ≦ 4)”; in assay [4], “+++ (+++ = MIC ≦ 4)”; in assay [5], “+++ (+++ = MIC ≦ 4)”; in assay [6] it was “++ (++ = 4 < MIC < 12)”.

Take `Cn1cc(NC(=O)c2cc(NC(=O)c3ccccc3F)cn2C)cc1C(=O)NCCN1CCSCC1` [Compound B-40]: the “Minimum Inhibitory Concentration (MIC)” value is “+++ (+++ = MIC ≦ 4)” in assay [1]; greater than 32 µg/mL in assay [2]; “+++ (+++ = MIC ≦ 4)” in assay [3]; “++ (++ = 4 < MIC < 12)” in assay [4]; “++ (++ = 4 < MIC < 12)” in assay [5]; “++ (++ = 4 < MIC < 12)” in assay [6].

As to `Cn1cc(NC(=O)c2cc(NC(=O)c3cc(NC(=O)c4cc(NC(=O)c5ccccc5F)cn4C)cn3C)cn2C)cc1C(=O)NCCN1CCSCC1` [Compound B-42], the “Minimum Inhibitory Concentration (MIC)” value in assay [1] was “+++ (+++ = MIC ≦ 4)”; in assay [2], greater than 32 µg/mL; in assay [3] it was “+++ (+++ = MIC ≦ 4)”; in assay [4], “+++ (+++ = MIC ≦ 4)”; in assay [5], “+++ (+++ = MIC ≦ 4)”; in assay [6] it was “+++ (+++ = MIC ≦ 4)”.

Turning to `Cn1cc(NC(=O)c2cc(NC(=O)c3ccccc3F)cn2C)cc1C(=O)NCCN1CCOCC1` [Compound B-43], the “Minimum Inhibitory Concentration (MIC)” value is “+ (+ = 12 ≦ MIC ≦ 32)” in assay [1]; greater than 32 µg/mL in assay [2]; “+ (+ = 12 ≦ MIC ≦ 32)” in assay [3]; “+ (+ = 12 ≦ MIC ≦ 32)” in assay [4]; “+ (+ = 12 ≦ MIC ≦ 32)” in assay [5]; “+ (+ = 12 ≦ MIC ≦ 32)” in assay [6].

For the compound `Cn1cc(NC(=O)c2cc(NC(=O)c3cc(NC(=O)c4cc(NC(=O)c5ccccc5F)cn4C)cn3C)cn2C)cc1C(=O)NCCN1CCOCC1` [Compound B-44], the “Minimum Inhibitory Concentration (MIC)” value is “+++ (+++ = MIC ≦ 4)” in assay [1]; greater than 32 µg/mL in assay [2]; “++ (++ = 4 < MIC < 12)” in assay [3]; “+++ (+++ = MIC ≦ 4)” in assay [4]; “+++ (+++ = MIC ≦ 4)” in assay [5]; “++ (++ = 4 < MIC < 12)” in assay [6].
